Test results taken from ChEMBL document CHEMBL4673363, “Highly potent, broadly active antifungal agents for the treatment of invasive fungal infections” (Bioorg Med Chem Lett, 2021).
Converted amounts (≈) assume the structure as drawn.

Tests used:
[1] = Cytotoxicity against mouse 3T3 cells assessed as reduction in metabolic activity measured after 24 hrs; assay type: ADME, cell-based
Aspergillus fumigatus = test: Antifungal activity against Aspergillus fumigatus ATCC 3626; assay type: functional
CYP2C19 = CYP2C19 (Homo sapiens, UniProt P33261); test: Inhibition of CYP2C19 in human liver microsomes at 10 uM using S-mephenytoin as substrate measured for 10 to 30 mins in presence of NADPH by LC-MS/MS analysis relative to control; assay type: ADME; details: probe S-mephenytoin, time 10-30 min
Sequence of CYP2C19 (P33261 whole entry): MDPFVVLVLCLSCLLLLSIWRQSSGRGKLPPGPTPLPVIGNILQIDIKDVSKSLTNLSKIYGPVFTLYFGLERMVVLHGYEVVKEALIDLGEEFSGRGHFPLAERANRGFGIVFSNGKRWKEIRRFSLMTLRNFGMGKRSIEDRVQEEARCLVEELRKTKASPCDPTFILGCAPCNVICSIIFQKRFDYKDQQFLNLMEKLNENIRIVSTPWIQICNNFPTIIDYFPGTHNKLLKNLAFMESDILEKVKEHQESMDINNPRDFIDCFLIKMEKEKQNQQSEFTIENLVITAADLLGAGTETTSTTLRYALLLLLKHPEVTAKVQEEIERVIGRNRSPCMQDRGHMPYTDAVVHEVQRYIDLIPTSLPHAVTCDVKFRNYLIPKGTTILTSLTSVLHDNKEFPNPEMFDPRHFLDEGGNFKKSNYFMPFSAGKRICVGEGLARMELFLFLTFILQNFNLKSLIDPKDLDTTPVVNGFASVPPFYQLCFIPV

[2] = Selectivity index, ratio of CC50 for mouse 3T3 cells to MIC for candida albicans; assay type: toxicity; details: read-out: Selectivity Index
[3] = Antifungal activity against Mucor ramosissimus ATCC 90286; assay type: functional
[4] = Selectivity index, ratio of CC50 for human HepG2 cells to MIC for candida albicans; assay type: toxicity; details: read-out: Selectivity Index
Candida albicans = test: Antifungal activity against Candida albicans clinical isolate; assay type: functional
hERG (KCNH2) = hERG (KCNH2) (Homo sapiens, UniProt Q12809); test: Inhibition of human ERG at 10 uM by Qpatch method relative to control
Sequence of hERG (KCNH2) (Q12809 whole entry): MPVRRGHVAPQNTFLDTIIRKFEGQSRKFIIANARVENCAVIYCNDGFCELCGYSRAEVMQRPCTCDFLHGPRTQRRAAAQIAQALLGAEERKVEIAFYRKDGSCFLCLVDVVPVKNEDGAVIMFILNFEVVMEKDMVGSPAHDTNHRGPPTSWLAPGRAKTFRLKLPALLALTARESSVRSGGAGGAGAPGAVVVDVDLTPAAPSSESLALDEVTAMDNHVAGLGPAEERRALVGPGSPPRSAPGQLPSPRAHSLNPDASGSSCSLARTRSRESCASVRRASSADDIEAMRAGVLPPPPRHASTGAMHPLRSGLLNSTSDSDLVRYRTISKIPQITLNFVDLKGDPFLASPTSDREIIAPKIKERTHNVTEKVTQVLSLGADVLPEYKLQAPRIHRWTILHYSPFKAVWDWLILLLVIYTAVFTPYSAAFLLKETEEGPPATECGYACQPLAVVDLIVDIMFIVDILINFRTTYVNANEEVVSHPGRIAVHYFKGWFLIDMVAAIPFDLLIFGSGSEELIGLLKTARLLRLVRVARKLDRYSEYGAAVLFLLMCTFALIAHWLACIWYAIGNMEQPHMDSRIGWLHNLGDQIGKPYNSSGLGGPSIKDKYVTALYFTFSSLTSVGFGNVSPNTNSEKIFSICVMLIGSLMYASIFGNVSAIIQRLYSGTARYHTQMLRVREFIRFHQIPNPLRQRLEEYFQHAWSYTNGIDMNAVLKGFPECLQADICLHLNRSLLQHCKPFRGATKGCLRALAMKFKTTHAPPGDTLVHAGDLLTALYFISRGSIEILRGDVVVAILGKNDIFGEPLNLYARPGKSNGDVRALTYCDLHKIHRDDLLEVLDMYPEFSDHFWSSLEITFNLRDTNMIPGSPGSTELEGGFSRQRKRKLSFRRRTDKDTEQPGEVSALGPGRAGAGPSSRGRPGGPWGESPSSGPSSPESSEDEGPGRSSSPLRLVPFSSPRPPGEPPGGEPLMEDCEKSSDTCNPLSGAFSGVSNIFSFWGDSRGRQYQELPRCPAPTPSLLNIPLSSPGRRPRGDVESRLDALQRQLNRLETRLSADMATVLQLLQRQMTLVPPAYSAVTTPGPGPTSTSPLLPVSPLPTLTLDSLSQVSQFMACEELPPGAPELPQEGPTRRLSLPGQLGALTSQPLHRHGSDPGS

Aspergillus flavus = test: Antifungal activity against Aspergillus flavus ATCC 3631; assay type: functional
[5] = Solubility in 10% 2-hydroxypropyl-B-cyclodextrin; assay type: physicochemical
[6] = Protein binding in mouse plasma at 1 uM measured after 4 hrs by LC-MS/MS based rapid equilibrium dialysis method; assay type: ADME, cell-free; details: read-out: PPB (converted)
[7] = Aqueous solubility of compound at pH 7.4; assay type: physicochemical
CYP1A2 = biological target: T1, CYP1A2 (Homo sapiens, UniProt P05177); test: Inhibition of CYP1A2 in human liver microsomes at 10 uM using phenacetin as substrate measured for 10 to 30 mins in presence of NADPH by LC-MS/MS analysis relative to control; assay type: ADME; details: probe phenacetin, time 10-30 min
T1 sequence (P05177 whole entry): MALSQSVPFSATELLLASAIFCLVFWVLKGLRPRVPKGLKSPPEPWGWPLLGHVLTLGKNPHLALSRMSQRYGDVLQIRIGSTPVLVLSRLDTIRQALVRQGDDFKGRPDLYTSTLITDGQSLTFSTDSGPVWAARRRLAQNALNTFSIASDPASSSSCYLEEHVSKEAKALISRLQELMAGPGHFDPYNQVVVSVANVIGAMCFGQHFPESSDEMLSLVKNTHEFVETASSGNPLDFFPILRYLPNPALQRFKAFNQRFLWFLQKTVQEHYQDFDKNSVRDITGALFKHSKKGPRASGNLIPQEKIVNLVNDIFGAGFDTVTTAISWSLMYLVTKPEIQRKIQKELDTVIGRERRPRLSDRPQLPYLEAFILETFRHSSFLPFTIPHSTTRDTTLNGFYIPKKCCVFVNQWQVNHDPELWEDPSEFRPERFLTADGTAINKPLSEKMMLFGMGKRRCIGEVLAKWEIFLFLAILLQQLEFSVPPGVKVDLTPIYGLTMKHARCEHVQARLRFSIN

Fusarium solani = test: Antifungal activity against Fusarium solani ATCC 58877; assay type: functional
CYP3A = test: Inhibition of CYP3A in human liver microsomes at 10 uM using testosterone as substrate measured for 10 to 30 mins in presence of NADPH by LC-MS/MS analysis relative to control; assay type: ADME; details: probe testosterone, time 10-30 min
[8] = Cytotoxicity against human HepG2 cells assessed as reduction in metabolic activity measured after 24 hrs; assay type: ADME, cell-based
[9] = Metabolic stability in mouse liver microsomes assessed as half life measured up to 60 mins in presence of NADPH by LC-MS/MS analysis; assay type: ADME, Microsome
[10] = Antifungal activity against Fusarium falciforme ATCC 3636; assay type: functional
Mucor circinelloides = test: Antifungal activity against Mucor circinelloides ATCC 26579; assay type: functional
Rhizopus = test: Antifungal activity against Rhizopus assessed as inhibition of fungal growth by broth dilution assay; assay type: functional, organism-based
Aspergillus = test: Antifungal activity against Aspergillus assessed as inhibition of fungal growth by broth dilution assay; assay type: functional, organism-based
Candida [11] = test: Antifungal activity against Candida assessed as inhibition of fungal growth by broth dilution assay; assay type: functional, organism-based
Candida [12] = test: Antifungal activity against Candida after 48 hrs by CLSI-based broth microdilution method; assay type: functional
Trichophyton = test: Antifungal activity against Trichophyton after 48 hrs by CLSI-based broth microdilution method; assay type: functional

Row | Structure (SMILES) | MIC (Aspergillus fumigatus) [µg/mL] | MIC [3] [µg/mL] | MIC (Aspergillus flavus) [µg/mL] | MIC (Fusarium solani) [µg/mL] | MIC [10] [µg/mL] | MIC (Mucor circinelloides) [µg/mL] | further results
1 | CC(C)n1c(-c2ccc(C3=CCN(C(=N)N)CC3)cc2)nnc1-c1ccc(C2=CCN(C(=N)N)CC2)cc1 | < 0.1 | 0.78 (≈ 1.53 µM) | < 0.1 | < 0.1 | < 0.1 | 0.2 (≈ 0.392 µM) | CC50 at 24 h [1]: 297 µM; inhibition at 10 µM (CYP2C19): 10.3%; selectivity ratio [2]: > 1000; selectivity ratio [4]: > 1000; MIC50 (Candida albicans): 0.1 µg/mL (≈ 0.196 µM); inhibition at 10 µM (hERG (KCNH2)): 21.6%; solubility [5]: ≤ 5000 µg/mL; fraction unbound at 4 h, 1 µM [6]: 0.027; solubility [7]: 27 µg/mL (≈ 53 µM); inhibition at 10 µM (CYP1A2): 0%; inhibition at 10 µM (CYP3A): 0%; CC50 at 24 h [8]: 751 µM; half-life [9]: > 1 h
2 | Cn1c(-c2ccc(C3CCN(C(=N)N)CC3)cc2)nnc1-c1ccc(C2CCN(C(=N)N)CC2)cc1 | 1.56 (≈ 3.21 µM) | > 100 | 1.56 (≈ 3.21 µM) | 0.78 (≈ 1.61 µM) | 0.78 (≈ 1.61 µM) | > 100 | 
3 | NC(N)=N/N=C/c1ccc(OCc2ccc(Cl)c(Cl)c2)cc1 |  |  |  |  |  |  | IC50 (Rhizopus): > 12 µM; IC50 (Aspergillus): > 12 µM; IC50 (Candida [11]): > 12 µM
4 | N=C(N)N1CC=C(c2ccc(-c3nnc(-c4ccc(C5=CCN(C(=N)N)CC5)cc4)n3Cc3ccccc3)cc2)CC1 | 0.39 (≈ 0.699 µM) | 3.13 (≈ 5.61 µM) | 1.56 (≈ 2.8 µM) | 0.05 (≈ 0.0897 µM) | 0.1 (≈ 0.179 µM) | 1.56 (≈ 2.8 µM) | 
5 | Cn1c(-c2ccc(CNC(=N)N)cc2)cnc1-c1ccc(CNC(=N)N)cc1 | > 100 | > 100 | > 100 | > 100 | > 100 | > 100 | 
6 | N=C(N)N1CC=C(c2ccc(-c3nnc(-c4ccc(C5=CCN(C(=N)N)CC5)cc4)n3C3CCCCC3)cc2)CC1 | 0.39 (≈ 0.709 µM) | 1.56 (≈ 2.84 µM) | 0.78 (≈ 1.42 µM) | 0.39 (≈ 0.709 µM) | 0.2 (≈ 0.364 µM) | 0.39 (≈ 0.709 µM) | 
7 | Cn1c(-c2ccc(C3=CCN(C(=N)N)CC3)cc2)nnc1-c1ccc(C2=CCN(C(=N)N)CC2)c(C(F)(F)F)c1 | 0.2 (≈ 0.364 µM) | 3.13 (≈ 5.69 µM) | 0.39 (≈ 0.71 µM) | 0.2 (≈ 0.364 µM) | 0.2 (≈ 0.364 µM) | 0.78 (≈ 1.42 µM) | 
8 | Cc1cc(C2=CCN(C(=N)N)CC2)ccc1-c1nnc(-c2ccc(C3=CCN(C(=N)N)CC3)cc2)n1C | 0.2 (≈ 0.404 µM) | 6.25 (≈ 12.6 µM) | 0.39 (≈ 0.787 µM) | 0.2 (≈ 0.404 µM) | 0.2 (≈ 0.404 µM) | 3.13 (≈ 6.32 µM) | 
9 | Cc1cc(-c2nnc(-c3ccc(C4=CCN(C(=N)N)CC4)cc3)o2)ccc1C1=CCN(C(=N)N)CC1 | > 25 | 25 (≈ 51.8 µM) | 6.25 (≈ 13 µM) | 1.56 (≈ 3.23 µM) | 0.39 (≈ 0.808 µM) | 25 (≈ 51.8 µM) | 
10 | N=C(N)N1CC=C(c2ccc(-c3nnc(-c4ccc(C5=CCN(C(=N)N)CC5)cc4)o3)cc2)CC1 | 3.13 (≈ 6.68 µM) | 100 (≈ 213 µM) | 3.13 (≈ 6.68 µM) | 6.25 (≈ 13.3 µM) | 0.39 (≈ 0.832 µM) | 100 (≈ 213 µM) | 
11 | Cn1c(-c2ccc(C3=CCN(C(=N)N)CC3)cc2)cnc1-c1ccc(C2=CCN(C(=N)N)CC2)cc1 | 0.2 (≈ 0.416 µM) | 6.25 (≈ 13 µM) | 0.39 (≈ 0.811 µM) | 3.13 (≈ 6.51 µM) | < 0.1 | 0.78 (≈ 1.62 µM) | 
12 | CCn1c(-c2ccc(C3=CCN(C(=N)N)CC3)cc2)nnc1-c1ccc(C2=CCN(C(=N)N)CC2)cc1 | < 0.012 | 0.78 (≈ 1.57 µM) | < 0.012 | < 0.012 | < 0.012 | 0.2 (≈ 0.404 µM) | 
13 | Cc1cc(C2=CCN(C(=N)N)CC2)ccc1-c1nnc(-c2ccc(C3=CCN(C(=N)N)CC3)cc2C)n1C | 0.78 (≈ 1.53 µM) | 6.25 (≈ 12.3 µM) | 0.39 (≈ 0.765 µM) | 0.2 (≈ 0.392 µM) | 0.78 (≈ 1.53 µM) | 1.56 (≈ 3.06 µM) | 
14 | Cn1c(-c2ccc(C3=CCN(C(=N)N)C3)cc2)nnc1-c1ccc(C2=CCN(C(=N)N)C2)cc1 | 0.2 (≈ 0.441 µM) | 6.25 (≈ 13.8 µM) | 0.39 (≈ 0.86 µM) | 0.2 (≈ 0.441 µM) | 0.05 (≈ 0.11 µM) | 0.78 (≈ 1.72 µM) | 
15 | Cc1cc(C2=CCN(C(=N)N)CC2)ccc1-c1nnc(-c2ccc(C3=CCN(C(=N)N)CC3)cc2)o1 | 0.78 (≈ 1.62 µM) | 25 (≈ 51.8 µM) | 0.31 (≈ 0.642 µM) | 0.78 (≈ 1.62 µM) | 0.2 (≈ 0.414 µM) | 12.5 (≈ 25.9 µM) | 
16 | Cn1c(-c2ccc(N3CCN(C(=N)N)CC3)cc2)nnc1-c1ccc(N2CCN(C(=N)N)CC2)cc1 | 0.39 (≈ 0.8 µM) | > 100 | 0.78 (≈ 1.6 µM) | 1.56 (≈ 3.2 µM) | 0.39 (≈ 0.8 µM) | > 100 | 
17 | Cn1c(-c2ccc(C3=CCN(C(=N)N)CC3)cc2)nnc1-c1ccc(C2=CCN(C(=N)N)CC2)cc1 | 0.1 (≈ 0.208 µM) | 0.39 (≈ 0.81 µM) | 0.1 (≈ 0.208 µM) | 0.024 (≈ 0.0498 µM) | 0.024 (≈ 0.0498 µM) | 0.2 (≈ 0.415 µM) | 
18 | COCCn1c(-c2ccc(C3=CCN(C(=N)N)CC3)cc2)nnc1-c1ccc(C2=CCN(C(=N)N)CC2)cc1 | 0.1 (≈ 0.19 µM) | 1.56 (≈ 2.97 µM) | 0.2 (≈ 0.38 µM) | 0.05 (≈ 0.0951 µM) | 0.05 (≈ 0.0951 µM) | 0.39 (≈ 0.742 µM) | 
19 | Cc1cc(-c2nnc(-c3ccc(C4=CCN(C(=N)N)CC4)c(C)c3)n2C)ccc1C1=CCN(C(=N)N)CC1 | 0.78 (≈ 1.53 µM) | 50 (≈ 98.1 µM) | 1.56 (≈ 3.06 µM) | 0.78 (≈ 1.53 µM) | 0.78 (≈ 1.53 µM) | 6.25 (≈ 12.3 µM) | 
20 | Cc1ccc(Oc2ccccc2-c2csc(N=C3NCCCN3)n2)c(C)c1 [ABAFUNGIN] |  |  |  |  |  |  | MIC (Aspergillus; time 48 hrs): 0.5 µg/mL (≈ 1.32 µM); MIC (Candida [11]): 0.5 µg/mL (≈ 1.32 µM)
21 | C[C@@H]1[C@H](O)[C@@H](C)/C=C/C=C/C=C/C=C/C=C/C=C/C=C/[C@H](O[C@@H]2O[C@H](C)[C@@H](O)[C@H](N)[C@@H]2O)C[C@@H]2O[C@](O)(C[C@@H](O)C[C@@H](O)[C@H](O)CC[C@@H](O)C[C@@H](O)CC(=O)O[C@H]1C)C[C@H](O)[C@H]2C(=O)O [AMPHOTERICIN B] | 3.13 (≈ 3.39 µM) | 3.13 (≈ 3.39 µM) | 3.13 (≈ 3.39 µM) | 3.13 (≈ 3.39 µM) | 3.13 (≈ 3.39 µM) | 1.56 (≈ 1.69 µM) | 
22 | CC(C)(C)c1cc(C(C)(C)C)c2[nH]c(C(C)(C)C)c(C[C@H](NC(=O)[C@@H](N)CCCNC(=N)N)C(=O)N[C@@H](CCCNC(=N)N)C(=O)NCCc3ccccc3)c2c1 [LTX-109] |  |  |  |  |  |  | MIC (Candida [12]): 4 µg/mL (≈ 5.08 µM); MIC (Trichophyton): 8 µg/mL (≈ 10.2 µM)
23 | CC[C@@H]([C@H](C)O)n1ncn(-c2ccc(N3CCN(c4ccc(OC[C@@H]5CO[C@@](Cn6cncn6)(c6ccc(F)cc6F)C5)cc4)CC3)cc2)c1=O [POSACONAZOLE] | 0.39 (≈ 0.557 µM) | 0.78 (≈ 1.11 µM) | 0.78 (≈ 1.11 µM) | 1.56 (≈ 2.23 µM) | 0.78 (≈ 1.11 µM) | 1.56 (≈ 2.23 µM) | 
